The record followed here is patent US9187487B2, “Azaindole derivatives as tyrosine kinase inhibitors” (PRINCIPIA BIOPHARMA, INC., priority 2011, dated 2015).

The target in the assay is recombinant JAK3 (catalytic domain, aa 781-1124) (Homo sapiens (Human), UniProt P52333). Kind of assay: JAK3 Caliper Peptide Phosphorylation Assay. The format is biochemical. The conditions noted are these: fluorescently labeled Srctide substrate 1 uM; ATP at 1×Km (2 uM); 2 hours at 25° C. As for the experimental part:
JAK3 Caliper Peptide Phosphorylation Assay
Phosphorylation of the appropriate peptide substrate (fluorescently labeled Srctide) by recombinant JAK3 (catalytic domain, aa 781-1124) was measured in the presence and absence of different concentrations of test compounds. Test compound, enzyme, fluorescently labeled substrate, and cofactors (ATP and Mg^2+) were combined in a well of a microtiter plate and incubated for 2 hours at 25° C. The composition of the reaction buffer was 100 mM HEPES pH 7.5, 5 mM MgCl2, 0.01% Triton-X 100, 0.1% Bovine Serum Albumin, and 1% DMSO. Enzyme concentration in the final reaction mixture was 0.5 nM while peptide substrate was at 1 uM. ATP was used at 1×Km concentration corresponding to 2 uM. Serial dilutions (3-fold steps) of compounds were prepared in DMSO. At the end of the incubation, the reaction was stopped by the addition of 20 mM EDTA. Substrate and product (i.e. phosphorylated substrate) were separated electrophoretically and both were quantified by fluorescence intensity using the microfluidics-based LabChip 3000 Drug Discovery System from Caliper Life Sciences. Conversion for each well was calculated and plotted as function of test compound concentration. IC50 value was determined by fitting the data to a 4-parameter logistic model by non-linear regression (XLfit model 205). In every assay, Staurosporine was tested in the same manner as reference compound. Selectivity for JAK3 was determined using commercially available kinase cross-screening services (DiscoveRx, San Diego, Calif.).

The structures appear in SMILES notation.

Sequence of recombinant JAK3 (catalytic domain, aa 781-1124) (P52333 781-1124): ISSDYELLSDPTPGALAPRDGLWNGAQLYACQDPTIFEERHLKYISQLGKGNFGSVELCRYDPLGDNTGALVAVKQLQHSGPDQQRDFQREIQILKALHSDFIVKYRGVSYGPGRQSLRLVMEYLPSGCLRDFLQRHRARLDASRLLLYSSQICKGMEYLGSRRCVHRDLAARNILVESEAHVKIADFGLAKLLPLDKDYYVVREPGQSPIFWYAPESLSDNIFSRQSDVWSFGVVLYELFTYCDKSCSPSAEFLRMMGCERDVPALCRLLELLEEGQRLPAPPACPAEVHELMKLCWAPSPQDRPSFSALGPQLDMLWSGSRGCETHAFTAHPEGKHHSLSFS

As to `CC(C)NC(=O)c1c[nH]c2ncc(Nc3ccc(C=C(C#N)C(=O)N4CCOCC4)cc3)nc12` [compound 80, N-(isopropyl)-2-((4-(2-cyano-3-morpholino-3-oxoprop-1-en-1-yl)phenyl)amino)-5H-pyrrolo[2,3-b]pyrazine-7-carboxamide], the IC50 amounted to 0.7 nM. Regarding `CC(C)(C)C(=O)c1c[nH]c2ncc(Nc3ccc(C=C(C#N)S(C)(=O)=O)cc3)nc12` [compound 81, 2-(methylsulfonyl)-3-(4-((7-pivaloyl-5H-pyrrolo[2,3-b]pyrazin-2-yl)amino)phenyl)-acrylonitrile], the IC50 was 0.6 nM. Take `CC(C)(C)C(=O)c1c[nH]c2ncc(Nc3ccc(C=C(C#N)c4nccs4)cc3)nc12` [compound 82, 3-(4-((7-pivaloyl-5H-pyrrolo[2,3-b]pyrazin-2-yl)amino)phenyl)-2-(thiazol-2-yl)acrylonitrile]: the IC50 was determined as 38.3 nM. `CC(C)NC(=O)c1c[nH]c2ncc(Nc3ccc(C=C(C#N)C(=O)N4CCNCC4)cc3)nc12` [compound 83, 2-((4-(2-cyano-3-oxo-3-(piperazin-1-yl)prop-1-en-1-yl)phenyl)amino)-N-isopropyl-5H-pyrrolo[2,3-b]pyrazine-7-carboxamide]: the IC50 came to 0.2 nM. To `CN(C(=O)C(C#N)=Cc1ccc(Nc2cnc3[nH]cc(C(=O)C(C)(C)C)c3n2)cc1)c1ccccc1` [compound 85, 2-cyano-N-methyl-N-phenyl-3-(4-((7-pivaloyl-5H-pyrrolo[2,3-b]pyrazin-2-yl)amino)phenyl)-acrylamide] belongs 5.5 nM; to `CN(C)CCN1C(=O)SC(=Cc2ccc(Nc3cnc4[nH]cc(C(=O)C(C)(C)C)c4n3)cc2)C1=O` [compound 88, 3-(2-(dimethylamino)ethyl)-5-(4-((7-pivaloyl-5H-pyrrolo[2,3-b]pyrazin-2-yl)amino)-benzylidene)thiazolidine-2,4-dione], 3 nM; to `CC(C)(C)C(=O)c1c[nH]c2ncc(Nc3ccc(C=C4SC(=O)N(CCN)C4=O)cc3)nc12` [compound 89, 3-(2-aminoethyl)-5-(4-((7-pivaloyl-5H-pyrrolo[2,3-b]pyrazin-2-yl)amino)benzylidene)thiazolidine-2,4-dione], 3 nM.

Regarding `CN(C)C(=O)C(C#N)=Cc1ccc(-c2cnc3[nH]cc(C(=O)C(C)(C)C)c3n2)cc1` [compound 96, 2-cyano-N,N-dimethyl-3-(4-(7-pivaloyl-5H-pyrrolo[2,3-b]pyrazin-2-yl)phenyl)acrylamide], the IC50 turned out to be 680 nM. As for `CN(C)C(=O)C(C#N)=Cc1cccc(-c2cnc3[nH]cc(C(=O)C(C)(C)C)c3n2)c1` [compound 97, 2-cyano-N,N-dimethyl-3-(3-(7-pivaloyl-5H-pyrrolo[2,3-b]pyrazin-2-yl)phenyl)acrylamide], the IC50 stood at 104 nM.

On to `CN(C)C(=O)C(C#N)=Cc1cccc(Oc2cnc3[nH]cc(C(=O)C(C)(C)C)c3n2)c1` [compound 100, 2-cyano-N,N-dimethyl-3-(3-((7-pivaloyl-5H-pyrrolo[2,3-b]pyrazin-2-yl)oxy)phenyl)acrylamide], for which the IC50 was more than 5000 nM. To `CC(C)(C)C(=O)c1c[nH]c2ncc(-c3cccc(NC(=O)C(C#N)=CC4CC4)c3)nc12` [compound 102, 2-cyano-3-cyclopropyl-N-(3-(7-pivaloyl-5H-pyrrolo[2,3-b]pyrazin-2-yl)phenyl)acrylamide] belongs 345 nM.

For orientation: IC50 means the concentration that inhibits the measured activity by half.
